Several values for one entry are separate records, joined by “and”; a condition that tells them apart may be missing. Identical values can stand only once. Blank lines part the entries; values can stand above or below the compound they belong to.
Assays:
[1] = Plasma levels of curcumin, metabolites and piperine by HPLC-MS/MS in participants using their own curcumin formulations; assay type: in vivo, human
Procedure: This study is an observational, open-label study investigating the plasma concentration of curcumin as used in daily life. Each participant was instructed to bring their own curcumin formulation on the day of visit. Participants were asked not to take their curcumin formulation in the morning on the day of visit. Blood was taken just before intake of the curcumin supplement (trough concentration) and 1.5 h after intake (expected peak concentration). Any food or beverage intake between these time points was registered while participants were not allowed to take any additional curcumin in between these two time points.
Blood was collected in heparinized tubes and protected against light by wrapping in aluminum foil directly after sampling. All samples were centrifuged (Rotina 380R from Hettich) for 10 min at 2754 RCF and 20°C and the obtained plasma was immediately stored, protected from light, at –80°C until analysis.
To determine the active plasma concentrations of curcumin, demethoxycurcumin, bisdemethoxycurcumin, and tetrahydrocurcumin it is important to highlight the difference between conjugated and unconjugated forms of these different compounds. A way to show this difference is to pretreat each sample with and without β-glucoronidase. In short, we used β-glucoronidase from Sigma-Aldrich (St. Louis, MO, USA), which contained ≥300,000 U/g β-glucoronidase and ≥10,000 U/g sulfatase, which hydrolyzes the hydrophilic glucuronic and sulfate acid group from conjugated curcumin (Figure 1) ([19]). The optimal pH for β-glucoronidase activity is 5.0 ([20]). Although our final mixture of sample plus β-glucoronidase solution has a slightly higher pH, we confirmed that after 1 h incubation at 37°C and 850 repetition per minute (rpm), a plateau was reached. No further conversion of conjugated curcumin into deconjugated curcumin occurred, indicating a complete reaction. Therefore, adding β-glucoronidase/sulfatase mixture results in an increase of unconjugated curcumin, demethoxycurcumin, bisdemethoxycurcumin, and tetrahydrocurcumin by displaying the sum of ‘previous’ conjugated and unconjugated curcuminoids and tetrahydrocurcumin.
Plasma samples were analyzed by our validated HPLC-MS/MS method ([21]). In short, on the day of analysis, samples were thawed and pretreated with and without β-glucoronidase. The samples treated with β-glucoronidase were incubated with 20 U/μL β-glucuronidase at 37°C and 850 revolutions per minute (RPM) for 1 h. Liquid–liquid extraction with Tert Butyl Methyl Ether (TBME) as organic phase was used to extract the compounds from the plasma. Curcumin, demethoxycurcumin, bisdemethoxycurcumin, tetrahydrocurcumin and piperine were quantified in a single analytical run. The HPLC-MS/MS system consisted of an Ultimate 3000 autosampler and pump, both of Dionex, connected to a degasser from LC Packings. The autosampler, with a 100 μL sample loop, was coupled to a Sciex API4000 mass spectrometer. After injection of 50 μL sample, separation of the analytes was performed with an Agilent column 2.1 × 100 mm packed with material of Zorbax Extend 3.5 μm C-18. The flowrate was […] and the dual gradient mobile phase consisted of A: ultra-purified H2O with 0.1% formic acid and B: MeOH 100%. The applied gradient profile started at 50:50 A:B and increased linear to 95% B in 3.0 min. During 6 min a 5:95 A:B level is continued, after which it returned in 0.2 min to 50:50. Afterwards the system was equilibrated during 6 min at the starting level. Throughout the liquid–liquid extraction and HPLC-MS/MS the potential influence of light was minimized by working in an dark environment with aluminum foil as much as possible. Each analytical run included a set of freshly prepared calibration samples containing all compounds in the validated range of 2 nM to 400 nM.

CYP3A = tested on: CYP3A; design: method as in PMID 18480186; conditions: cited from earlier work
[2] = design: method as in PMID 9619120; conditions: addition of 20 mg/kg piperine; rats; cited from earlier work
[3] = tested on: mouse model for pancreatic cancer; design: method as in PMID 19528445; conditions: cited from earlier work
[4] = cited from earlier work
[5] = design: method as in PMID 9278892; conditions: human blood incubated for 8 h at 37°C; cited from earlier work
[6] = design: method as in PMID 16545122; conditions: oral dosages of up to 12 gram; cited from earlier work
[7] = human, in vivo, Mean concentration
[8] = human, in vivo, Plasma level in individual participants
[9] = with addition of β-glucuronidase, 0 h (trough), human plasma
[10] = with addition of β-glucuronidase, 1.5 h (expected peak), human plasma
[11] = without addition of β-glucuronidase, 0 h (trough), human plasma

Plasma concentrations ([1]; human, in vivo): 1.0 to 18.6 ng/mL | Plasma level in individual participants ([1]; human, in vivo): 2.1 ng/mL | Concentration range ([1]; human, in vivo, 0 h): 0.7 to 2.7 ng/mL | Mean concentration ([1]; human, in vivo, 0 h): 1.6 ng/mL | Concentration range ([1]; human, in vivo, 1.5 h): 0.7 to 60.4 ng/mL | Mean concentration ([1]; human, in vivo, 1.5 h): 6.1 ng/mL | concentration at 0 h [1, 7]: 2.1 ng/mL | concentration at 1.5 h [1, 8]: < 0.62 ng/mL
Compound: O=C(/C=C/c1ccc(O)cc1)CC(=O)/C=C/c1ccc(O)cc1 [Bisdemethoxycurcumin, bisdemethoxycurcumin]

Plasma concentrations ([1]; human, in vivo): 1.0 to 18.6 ng/mL | Plasma level in individual participants ([1]; human, in vivo): < 0.68 ng/mL | Concentration range ([1]; human, in vivo, 0 h): 1.4 to 8.6 ng/mL | Mean concentration ([1]; human, in vivo, 0 h): 3.5 ng/mL | Concentration range ([1]; human, in vivo, 1.5 h): 0.9 to 73.1 ng/mL | Mean concentration ([1]; human, in vivo, 1.5 h): 9.4 ng/mL | concentration at 1.5 h [1, 8]: < 0.68 ng/mL
Compound: COc1cc(/C=C/C(O)=C/C(=O)/C=C/c2ccc(O)cc2)ccc1O [Demethoxycurcumin, demethoxycurcumin]

Fold lower than piperine plasma concentrations in literature that affect curcumin bioavailability ([1]; human, in vivo): 10-60 fold | Trough and peak level concentrations ([1]; human, in vivo): 1.0 to 1096 ng/mL | Detectability in plasma ([1]; in vivo): detectable in all participants
Compound: O=C(/C=C/C=C/c1ccc2c(c1)OCO2)N1CCCCC1 [Piperine, piperine]
IC50 (CYP3A): 5.5 ± 0.7 µM

Plasma concentrations ([1]; human, in vivo): 1.0 to 18.6 ng/mL | Plasma level in individual participants ([1]; human, in vivo): < 0.74 ng/mL | Concentration range ([1]; human, in vivo, 0 h): 0.8 to 81.2 ng/mL | Mean concentration ([1]; human, in vivo, 0 h): 14.6 ng/mL | Mean concentration ([1]; human, in vivo, 1.5 h): 21.6 ng/mL | Plasma level in individual participants ([1]; human, in vivo, 1.5 h): 20.9 ng/mL | concentration at 1.5 h [1, 7]: 18.6 ng/mL | concentration at 1.5 h [1, 8]: 16.4 ng/mL
Compound: COc1cc(CCC(=O)CC(=O)CCc2ccc(O)c(OC)c2)ccc1O [Tetrahydrocurcumin, tetrahydrocurcumin]

Compound: curcumin
Increase of bioavailability of curcumin [2]: 154% | Fold below a plasma concentration expected to have a beneficial health effect ([1]; curcumin plasma level after adding β-glucuronidase (25.4 ng/mL)): 1000 fold | Cmax ([1]; one of three participants using curcumin lipid formulations, dosage 800 mg): 355 nM | Fold lower than the concentrations assessed in vitro ([1]; unconjugated free curcumin in plasma): > 1000 fold | Detectable levels in # persons [1, 9]: 27 | Mean concentration [1, 9]: 14.3 ng/mL | Detectable levels in # persons [1, 10]: 42 | Mean concentration [1, 10]: 25.4 ng/mL | Participants in whom curcumin after hydrolysis could not be detected (below LLOQ) ([1]; with β-glucuronidase, 1.5 h after dosing): 5 | Detectable levels in # persons [1, 11]: 1 | Mean concentration [1, 11]: 10.1 ng/mL | Mean concentration ([1]; without addition of β-glucuronidase, 1.5 h (expected peak), human plasma): 1.0 ng/mL | Detectable levels in # persons ([1]; without addition of β-glucuronidase, 1.5 h after intake (expected peak), human plasma): 2 | Plasma level in individual participants ([1]; without β-glucuronidase, expected peak level, 1.5 h after intake): 0.9 ng/mL and 1.1 ng/mL | Plasma level in individual participants ([1]; without β-glucuronidase, trough level): 10.1 ng/mL | Tumor growth [3]: reduced the tumor growth | Curcumin concentrations ([4]; oral lipid formulations, β-glucuronidase added prior to analysis): up to 1189.1 ± 518.8 ng/mL | Claimed plasma concentration relative to the concentration of unconjugated curcumin ([4]; β-glucuronidase added to plasma prior to analysis): up to 185 x | Decrease of chemical t1/2 [5]: 50% | Levels of curcumin in the systemic circulation [6]: no detectable levels

Reference: publication PMC10720437, “Non-therapeutic plasma levels in individuals utilizing curcumin supplements in daily life” (Frontiers in Nutrition, 2023)
